# Test results published in article PMC7914897, “Cytotoxic Potential of a-Azepano- and 3-Amino-3,4-SeCo-Triterpenoids” (International Journal of Molecular Sciences, 2021).
# Key:
# ACHN (Renal cancer) = assay: NCI-60 screen (SRB, 48 h); settings: Homo sapiens
# SF-295 (CNS cancer) = assay: NCI-60 screen (SRB, 48 h); settings: Homo sapiens
# COLO 205 (Colon cancer) = assay: NCI-60 screen (SRB, 48 h); settings: Homo sapiens
# HS 578T (Breast cancer) = assay: NCI-60 screen (SRB, 48 h); settings: Homo sapiens
# K-562 (Leukemia) = assay: NCI-60 screen (SRB, 48 h); settings: Homo sapiens
# Prostate cancer subpanel = assay: NCI-60 screen, subpanel; settings: Homo sapiens
# [1] = tested on: A549/ATCC (NSC lung cancer); assay: NCI-60 screen (SRB, 48 h); settings: Homo sapiens
# HCT-15 (Colon cancer) = assay: NCI-60 screen (SRB, 48 h); settings: Homo sapiens
# SW-620 (Colon cancer) = assay: NCI-60 screen (SRB, 48 h); settings: Homo sapiens
# UACC-62 (Melanoma) = assay: NCI-60 screen (SRB, 48 h); settings: Homo sapiens
# MALME-3M (Melanoma) = assay: NCI-60 screen (SRB, 48 h); settings: Homo sapiens
# Ovarian Cancer subpanel = assay: NCI-60 screen, subpanel; settings: Homo sapiens
# SN12C (Renal cancer) = assay: NCI-60 screen (SRB, 48 h); settings: Homo sapiens
# [2] = tested on: NCI/ADR-RES (Ovarian cancer); assay: NCI-60 screen (SRB, 48 h); settings: Homo sapiens
# HOP-62 (NSC lung cancer) = assay: NCI-60 screen (SRB, 48 h); settings: Homo sapiens
# HOP-92 (NSC lung cancer) = assay: NCI-60 screen (SRB, 48 h); settings: Homo sapiens
# OVCAR-8 (Ovarian cancer) = assay: NCI-60 screen (SRB, 48 h); settings: Homo sapiens, OVCAR-8
# SNB-19 (CNS cancer) = assay: NCI-60 screen (SRB, 48 h); settings: Homo sapiens
# M14 (Melanoma) = assay: NCI-60 screen (SRB, 48 h); settings: Homo sapiens
# EKVX (NSC lung cancer) = assay: NCI-60 screen (SRB, 48 h); settings: Homo sapiens
# SK-MEL-28 (Melanoma) = assay: NCI-60 screen (SRB, 48 h); settings: Homo sapiens
# DU-145 (Prostate cancer) = assay: NCI-60 screen (SRB, 48 h); settings: Homo sapiens
# MCF7 (Breast cancer) = assay: NCI-60 screen (SRB, 48 h); settings: Homo sapiens
# [3] = tested on: NCI-H23 (NSC lung cancer); assay: NCI-60 screen (SRB, 48 h); settings: Homo sapiens
# SK-MEL-2 (Melanoma) = assay: NCI-60 screen (SRB, 48 h); settings: Homo sapiens
# UO-31 (Renal cancer) = assay: NCI-60 screen (SRB, 48 h); settings: Homo sapiens
# T-47D (Breast cancer) = assay: NCI-60 screen (SRB, 48 h); settings: Homo sapiens, T47D
# Renal Cancer subpanel = assay: NCI-60 screen, subpanel; settings: Homo sapiens
smiles,measurement,setting,value
Cc1ccc(S(=O)(=O)OC[C@]23CCC(C)(C)C[C@H]2C2=CC[C@@H]4[C@@]5(C)CCCNC(C)(C)[C@@H]5CC[C@@]4(C)[C@]2(C)CC3)cc1 [Compound 15],GI50,ACHN (Renal cancer),1.68 µM
same,IC (TGI),"ACHN (Renal cancer); 48 h, read-out: TGI",3.07 µM
same,CC50,ACHN (Renal cancer); read-out: LC50,5.58 µM
same,GI50,SF-295 (CNS cancer); SF-295,1.71 µM
same,IC (TGI),"SF-295 (CNS cancer); SF-295, 48 h, read-out: TGI",3.3 µM
same,GI50,COLO 205 (Colon cancer); COLO 205,1.63 µM
same,IC (TGI),"COLO 205 (Colon cancer); COLO 205, 48 h, read-out: TGI",3.19 µM
same,GI50,HS 578T (Breast cancer),1.82 µM
same,IC (TGI),"HS 578T (Breast cancer); 48 h, read-out: TGI",4.08 µM
same,CC50,HS 578T (Breast cancer); read-out: LC50,9.14 µM
same,GI50,K-562 (Leukemia); K562,1.75 µM
same,CC50,"K-562 (Leukemia); K562, read-out: LC50",> 100 µM
same,IC (TGI),"Prostate cancer subpanel; 48 h, read-out: TGI MG_MID",3.27 µM
same,GI50,Prostate cancer subpanel; read-out: GI50 MG_MID,1.72 µM
same,CC50,Prostate cancer subpanel; read-out: LC50 MG_MID,6.35 µM
same,GI50,[1]; A549,1.83 µM
same,IC (TGI),"[1]; A549, 48 h, read-out: TGI",3.66 µM
same,GI50,HCT-15 (Colon cancer); HCT-15,1.65 µM
same,IC (TGI),"HCT-15 (Colon cancer); HCT-15, 48 h, read-out: TGI",3.2 µM
same,GI50,SW-620 (Colon cancer); SW-620,1.73 µM
same,IC (TGI),"SW-620 (Colon cancer); SW-620, 48 h, read-out: TGI",3.36 µM
same,GI50,UACC-62 (Melanoma); UACC-62,1.68 µM
same,IC (TGI),"UACC-62 (Melanoma); UACC-62, 48 h, read-out: TGI",3.2 µM
same,GI50,MALME-3M (Melanoma),1.77 µM
same,IC (TGI),"MALME-3M (Melanoma); 48 h, read-out: TGI",3.56 µM
same,IC (TGI),"Ovarian Cancer subpanel; 48 h, read-out: TGI MG_MID",3.35 µM
same,GI50,Ovarian Cancer subpanel; read-out: GI50 MG_MID,1.74 µM
same,CC50,Ovarian Cancer subpanel; read-out: LC50 MG_MID,6.03 µM
same,GI50,SN12C (Renal cancer),1.67 µM
same,IC (TGI),"SN12C (Renal cancer); 48 h, read-out: TGI",3.3 µM
same,GI50,[2],1.89 µM
same,IC (TGI),"[2]; 48 h, read-out: TGI",3.93 µM
same,GI50,HOP-62 (NSC lung cancer); HOP-62,1.81 µM
same,IC (TGI),"HOP-62 (NSC lung cancer); HOP-62, 48 h, read-out: TGI",3.56 µM
same,GI50,HOP-92 (NSC lung cancer); HOP-92,1.35 µM
same,IC (TGI),"HOP-92 (NSC lung cancer); HOP-92, 48 h, read-out: TGI",2.8 µM
same,GI50,OVCAR-8 (Ovarian cancer),1.99 µM
same,GI50,SNB-19 (CNS cancer); SNB-19,1.72 µM
same,IC (TGI),"SNB-19 (CNS cancer); SNB-19, 48 h, read-out: TGI",3.54 µM
same,GI50,M14 (Melanoma); M14,1.87 µM
same,IC (TGI),"M14 (Melanoma); M14, 48 h, read-out: TGI",3.58 µM
same,GI50,EKVX (NSC lung cancer),1.48 µM
same,IC (TGI),"EKVX (NSC lung cancer); 48 h, read-out: TGI",2.96 µM
same,GI50,SK-MEL-28 (Melanoma); SK-MEL-28,1.84 µM
same,IC (TGI),"SK-MEL-28 (Melanoma); SK-MEL-28, 48 h, read-out: TGI",3.38 µM
same,GI50,DU-145 (Prostate cancer); DU-145,1.79 µM
same,IC (TGI),"DU-145 (Prostate cancer); DU-145, 48 h, read-out: TGI",3.37 µM
same,CC50,"DU-145 (Prostate cancer); DU-145, read-out: LC50",6.35 µM
same,GI50,MCF7 (Breast cancer); MCF7,1.62 µM
same,IC (TGI),"MCF7 (Breast cancer); MCF7, 48 h, read-out: TGI",3.38 µM
same,GI50,[3]; NCI-H23,1.7 µM
same,IC (TGI),"[3]; NCI-H23, 48 h, read-out: TGI",3.27 µM
same,GI50,SK-MEL-2 (Melanoma); SK-MEL-2,2.19 µM
same,IC (TGI),"SK-MEL-2 (Melanoma); SK-MEL-2, 48 h, read-out: TGI",4.83 µM
same,CC50,"SK-MEL-2 (Melanoma); SK-MEL-2, read-out: LC50",16.4 µM
same,GI50,UO-31 (Renal cancer); UO-31,1.29 µM
same,IC (TGI),"UO-31 (Renal cancer); UO-31, 48 h, read-out: TGI",2.68 µM
same,CC50,"UO-31 (Renal cancer); UO-31, read-out: LC50",5.58 µM
same,GI50,T-47D (Breast cancer),1.67 µM
same,IC (TGI),"T-47D (Breast cancer); 48 h, read-out: TGI",3.31 µM
same,IC (TGI),"Renal Cancer subpanel; 48 h, read-out: TGI MG_MID",5.44 µM
same,GI50,Renal Cancer subpanel; read-out: GI50 MG_MID,2.13 µM
same,CC50,Renal Cancer subpanel; read-out: LC50 MG_MID,14.3 µM
